# Results reported in US20250171431A1, “HETEROCYCLIC INHIBITORS OF IGF-1R FOR TREATMENT OF DISEASE” (HORIZON THERAPEUTICS IRELAND DAC, priority 2023, published 2025).
# Target: IGF-1R (Homo sapiens (Human), UniProt P08069)
# Test: Example B-1: IGF-1R Assay (PC3 cells, IGF1 stimulation, AlphaLISA)
# Type: cell-based
# Settings: 200 ng/mL IGF1 stimulation, read-out: Biological Activity against IGF-1R IC50
# How it was run: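 Readout is AlphaLISA signal from lysed PC3 cells, expressed as % inhibition versus vehicle and EC80 controls and banded by IC50. Before lysis, the cells were starved of serum for 2 h, exposed to 3× serially diluted compound for 2 h, and stimulated for 30 min with 200 ng/mL IGF1 (final).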
# Chain of IGF-1R (P08069 31-1367): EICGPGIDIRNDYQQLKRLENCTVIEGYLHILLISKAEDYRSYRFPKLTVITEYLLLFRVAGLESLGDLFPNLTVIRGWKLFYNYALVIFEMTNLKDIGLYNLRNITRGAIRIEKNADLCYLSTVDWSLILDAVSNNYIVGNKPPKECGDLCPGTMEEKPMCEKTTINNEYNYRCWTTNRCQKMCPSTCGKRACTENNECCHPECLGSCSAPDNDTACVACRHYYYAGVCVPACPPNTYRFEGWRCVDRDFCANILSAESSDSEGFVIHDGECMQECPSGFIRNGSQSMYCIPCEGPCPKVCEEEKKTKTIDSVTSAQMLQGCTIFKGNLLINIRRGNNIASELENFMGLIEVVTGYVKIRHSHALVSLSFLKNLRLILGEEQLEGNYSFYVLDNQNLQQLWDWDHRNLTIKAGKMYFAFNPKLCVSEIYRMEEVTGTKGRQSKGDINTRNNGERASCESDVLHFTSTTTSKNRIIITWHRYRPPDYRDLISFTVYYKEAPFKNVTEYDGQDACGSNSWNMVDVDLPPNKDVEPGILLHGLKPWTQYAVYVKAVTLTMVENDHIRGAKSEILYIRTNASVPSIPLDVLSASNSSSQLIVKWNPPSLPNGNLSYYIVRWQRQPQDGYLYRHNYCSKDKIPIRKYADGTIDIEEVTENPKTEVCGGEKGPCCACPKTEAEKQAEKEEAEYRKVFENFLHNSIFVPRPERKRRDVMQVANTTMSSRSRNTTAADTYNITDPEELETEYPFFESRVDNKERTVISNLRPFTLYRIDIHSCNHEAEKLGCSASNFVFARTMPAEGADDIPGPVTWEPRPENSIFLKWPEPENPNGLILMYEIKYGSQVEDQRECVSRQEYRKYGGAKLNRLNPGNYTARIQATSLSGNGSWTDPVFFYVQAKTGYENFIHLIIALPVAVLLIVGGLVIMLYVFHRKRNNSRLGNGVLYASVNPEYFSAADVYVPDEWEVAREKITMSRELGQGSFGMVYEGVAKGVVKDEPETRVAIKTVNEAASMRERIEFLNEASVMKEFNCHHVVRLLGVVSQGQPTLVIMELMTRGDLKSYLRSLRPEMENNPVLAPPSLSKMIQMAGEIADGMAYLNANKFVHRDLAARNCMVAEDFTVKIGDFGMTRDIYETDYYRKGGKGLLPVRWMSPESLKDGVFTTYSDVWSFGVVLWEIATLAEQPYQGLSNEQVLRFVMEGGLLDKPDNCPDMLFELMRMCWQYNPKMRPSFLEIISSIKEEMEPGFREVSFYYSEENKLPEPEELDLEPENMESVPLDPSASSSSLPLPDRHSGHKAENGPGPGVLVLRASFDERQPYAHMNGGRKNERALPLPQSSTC
row,SMILES,IC50 [nM]
1,"COc1cc(N2CCC(C)(O)CC2)ncc1Nc1nccc(Nc2cc3cccc(F)c3[nH]c2=O)n1 [Compound 230, 8-fluoro-3-{2-[6-(4-hydroxy-4-methyl-1-piperidyl)-4-methoxy-3-pyridylamino]-4-pyrimidinylamino}-1,2-dihydro-2-quinolinone]",≤ 500
2,"COc1cc(Nc2nccc(Nc3cnc4ccccc4c3)c2F)ccc1O[C@H]1C[C@@H](N(C)C)C1 [Compound 264, 3-fluoro-2-{3-methoxy-4-[(1s,3s)-3-(dimethylamino)cyclobutoxy]phenylamino}-4-(3-quinolylamino)pyridine]",> 10000
3,"COc1cc(Nc2nccc(Nc3cnc4ccc(Br)cc4c3)n2)ccc1O[C@H]1C[C@H](N(C)C)C1 [Compound 199, 4-(6-bromo-3-quinolylamino)-2-{3-methoxy-4-[(1r,3r)-3-(dimethylamino)cyclobutoxy]phenylamino}pyrimidine]",≤ 500
4,"COc1cc(N2CCC(C)(O)CC2)ncc1Nc1nccc(Nc2cnc3ccc(Cl)cc3c2)n1 [Compound 490, 1-{5-[4-(6-chloro-3-quinolylamino)-2-pyrimidinylamino]-4-methoxy-2-pyridyl}-4-methyl-4-piperidinol]",≤ 500
5,"COc1cc(Nc2nccc(Nc3cc4ccccc4nc3C(=O)O)n2)ccc1O[C@H]1C[C@@H](N(C)C)C1 [Compound 296, 3-(2-{3-methoxy-4-[(1s,3s)-3-(dimethylamino)cyclobutoxy]phenylamino}-4-pyrimidinylamino)-2-quinolinecarboxylic acid]",> 10000
6,"c1cc(Nc2cnc3c(c2)OCCO3)nc(Nc2ccc(OCCCN3CCOCC3)cc2)n1 [Compound 388, 4-(2,3-dihydro-1,4-dioxa-5-aza-7-naphthylamino)-2-[p-(3-morpholinopropoxy)phenylamino]pyrimidine]",≤ 500
7,"COc1cc(Nc2nccc(Nc3cc4ccc(Cl)cc4[nH]c3=O)n2)ccc1O[C@H]1C[C@H](N(C)C)C1 [Compound 110, 7-chloro-3-(2-{3-methoxy-4-[(1r,3r)-3-(dimethylamino)cyclobutoxy]phenyl-amino}-4-pyrimidinylamino)-1,2-dihydro-2-quinolinone]",≤ 500
8,"COc1cc(Nc2nccc(Nc3cc4cccc(F)c4[nH]c3=O)n2)cnc1OC1CC2(C1)CN(C)C2 [Compound 167, 8-fluoro-3-(2-{5-methoxy-6-(2-methyl-2-aza-6-spiro[3.3]heptyloxy)-3-pyridylamino}-4-pyrimidinylamino)-1,2-dihydro-2-quinolinone]",≤ 500
9,"COc1cc(Nc2nccc(Nc3cnc4cc(F)c(F)cc4c3)n2)cnc1N1CCN(CC(F)(F)F)CC1 [Compound 474, 4-(6,7-difluoro-3-quinolylamino)-2-{5-methoxy-6-[4-(2,2,2-trifluoroethyl)-1-piperazinyl]-3-pyridylamino}pyrimidine]",500 to 2000
10,"COc1cc(Nc2nccc(Nc3cnc4c(F)cc(F)cc4c3)n2)ccc1O[C@H]1C[C@@H](N(C)C)C1 [Compound 113, 4-(6,8-difluoro-3-quinolylamino)-2-{3-methoxy-4-[(1s,3s)-3-(dimethylamino)cyclobutoxy]phenylamino}pyrimidine]",≤ 500
11,"CN1[C@@H]2COC[C@H]1C[C@H](Oc1ccc(Nc3nccc(Nc4cnc5ccccc5c4)n3)cc1)C2 [Compound 30, 2-(p-{(1R,5S,7s)-9-methyl-3-oxa-9-azabicyclo[3.3.1]non-7-yloxy}phenylamino)-4-(3-quinolylamino)pyrimidine]",≤ 500
12,"COc1cc(Nc2nccc(Nc3ccc4c(O)nccc4c3)n2)ccc1O[C@H]1C[C@@H](N(C)C)C1 [Compound 266, 6-(2-{3-methoxy-4-[(1s,3s)-3-(dimethylamino)cyclobutoxy]phenylamino}-4-pyrimidinylamino)-1-isoquinolinol]",≤ 500
13,"COc1cc(Nc2nccc(Nc3cc4cccc(F)c4[nH]c3=O)n2)cnc1N1CCC(O)(C(F)(F)F)CC1 [Compound 228, 8-fluoro-3-(2-{6-[4-hydroxy-4-(trifluoromethyl)-1-piperidyl]-5-methoxy-3-pyridylamino}-4-pyrimidinylamino)-1,2-dihydro-2-quinolinone]",≤ 500
14,"Fc1ccc2cc(Nc3ccnc(Nc4ccc(OCCCN5CCOCC5)cc4)n3)cnc2c1F [Compound 403, 4-(7,8-difluoro-3-quinolylamino)-2-[p-(3-morpholinopropoxy)phenylamino]pyrimidine]",2000 to 10000
15,"COc1cc(Nc2nccc(Nc3ncc4c(Cl)cccc4n3)n2)ccc1O[C@H]1C[C@@H](N(C)C)C1 [Compound 306, 4-(5-chloro-2-quinazolinylamino)-2-{3-methoxy-4-[(1s,3s)-3-(dimethylamino)cyclobutoxy]phenylamino}pyrimidine]",> 10000
16,"COc1cccc2cc(Nc3ccnc(Nc4ccc(OCCCN5CCOCC5)cc4)n3)cnc12 [Compound 417, 4-(8-methoxy-3-quinolylamino)-2-[p-(3-morpholinopropoxy)phenylamino]pyrimidine]",500 to 2000
17,"COc1cc(Nc2nccc(Nc3cc4ccc(F)cc4[nH]c3=O)n2)cnc1O[C@H]1C[C@@H](N(C)C)C1 [Compound 244, 7-fluoro-3-(2-{5-methoxy-6-[(1s,3s)-3-(dimethylamino)cyclobutoxy]-3-pyridylamino}-4-pyrimidinylamino)-1,2-dihydro-2-quinolinone]",≤ 500
18,"COc1cc(Nc2ncc(F)c(Nc3cc4ccccc4nc3C(N)=O)n2)cnc1N1CCC(C)(O)CC1 [Compound 491, 3-{5-fluoro-2-[6-(4-hydroxy-4-methyl-1-piperidyl)-5-methoxy-3-pyridylamino]-4-pyrimidinylamino}-2-quinolinecarboxamide]",≤ 500
19,"COc1cc(Nc2nccc(Nc3cnc4c(c3)CC(F)(F)CC4)n2)ccc1O[C@H]1C[C@H](N(C)C)C1 [Compound 81, 4-(6,6-difluoro-5,6,7,8-tetrahydro-3-quinolylamino)-2-{3-methoxy-4-[(1r,3r)-3-(dimethylamino)cyclobutoxy]phenylamino}pyrimidine]",≤ 500
20,"COc1cc(Nc2nccc(Nc3cnc4cc(F)c(F)cc4c3)n2)c(C)cc1O[C@H]1C[C@@H](N(C)C)C1 [Compound 154, N4-(6,7-difluoroquinolin-3-yl)-N2-(4-((1s,3s)-3-(dimethylamino)cyclobutoxy)-5-methoxy-2-methylphenyl)pyrimidine-2,4-diamine]",≤ 500
21,"COc1cc(Nc2nccc(Nc3cnc4ccccc4c3)n2)cc(C#N)c1O[C@H]1C[C@H](N(C)C)C1 [Compound 267, 3-methoxy-5-[4-(3-quinolylamino)-2-pyrimidinylamino]-2-[(1r,3r)-3-(dimethylamino)cyclobutoxy] benzonitrile]",≤ 500
22,"COc1cc(Nc2nccc(Nc3cnc4c(c3)O[C@@H]3CCCC[C@@H]3O4)n2)ccc1O[C@H]1C[C@@H](N(C)C)C1 [Compound 190, 4-[(8aS,10aR)-5,6,7,8,8a, 10a-hexahydro-9,10-dioxa-1-aza-3-anthrylamino]-2-{3-methoxy-4-[(1s,3S)-3-(dimethylamino)cyclobutoxy]phenylamino}pyrimidine]",≤ 500
23,"CN(C)[C@H]1C[C@@H](Oc2ccc(Nc3nccc(Nc4cnc5c(c4)OCCO5)n3)cc2C#N)C1 [Compound 43, 5-[4-(2,3-dihydro-1,4-dioxa-5-aza-7-naphthylamino)-2-pyrimidinylamino]-2-[(1s,3s)-3-(dimethylamino)cyclobutoxy] benzonitrile]",≤ 500

# Second part, the compound after the results:
row,IC50 [nM],SMILES
1,≤ 500,c1ccc2ncc(Nc3ccnc(Nc4ccc(OCCCN5CCCCC5)c(OCC5CCOCC5)c4)n3)cc2c1 [Compound 418]
2,≤ 500,"COc1cc(Nc2nccc(Nc3cnc4ccccc4c3)n2)ccc1OC1CN(C)C1 [Compound 37, 2-[3-methoxy-4-(1-methyl-3-azetidinyloxy)phenylamino]-4-(3-quinolylamino)pyrimidine]"
3,≤ 500,"COc1cc(Nc2nccc(Nc3cnc4c(Cl)cccc4c3)n2)ccc1N1CCOCC1 [Compound 461, 4-(8-chloro-3-quinolylamino)-2-(3-methoxy-4-morpholinophenylamino) pyrimidine]"
4,≤ 500,"CCc1ccc2cc(Nc3ccnc(Nc4ccc(OCCCN5CCCCC5)c(OC)c4)n3)cnc2c1 [Compound 72, 4-(7-ethyl-3-quinolylamino)-2-[3-methoxy-4-(3-piperidinopropoxy)phenylamino]pyrimidine]"
5,≤ 500,COc1cc(Nc2nccc(Nc3cnc4c(c3)OCCO4)n2)ccc1O[C@H]1CC[C@@H](N(C)C)CC1 [Compound 273]
6,≤ 500,"O=S1(=O)CCN(CCCOc2ccc(Nc3nccc(Nc4cnc5c(c4)C4CCC5C4)n3)cc2)CC1 (centres unmarked) [Compound 371, 4-[3-(p-{4-(3-azatricyclo[6.2.1.0^2,7]undeca-2,4,6-trien-5-ylamino)-2-pyrimidinylamino}phenoxy)propyl]-1λ^6,4-thiazinane-1,1-dione]"
7,≤ 500,"COc1cc(Nc2nccc(Nc3cnc4ccc(Cl)cc4c3)n2)ccc1N1CCOCC1 [Compound 462, 4-(6-chloro-3-quinolylamino)-2-(3-methoxy-4-morpholinophenylamino) pyrimidine]"
8,≤ 500,"COc1cc(Nc2nccc(Nc3cnc4c(c3)CCC4)n2)ccc1OCCCN1CCCCC1 [Compound 194, 4-(4-aza-6-indanylamino)-2-[3-methoxy-4-(3-piperidinopropoxy)phenylamino] pyrimidine]"
9,≤ 500,"c1ccc2ncc(Nc3ccnc(Nc4ccc(OCCCN5CCOCC5)nc4)n3)cc2c1 [Compound 31, 2-[6-(3-morpholinopropoxy)-3-pyridylamino]-4-(3-quinolylamino)pyrimidine]"
10,≤ 500,COc1cc(Nc2nccc(Nc3cnc4ccccc4c3)n2)ccc1O[C@H]1C[C@H](N2CCS(=O)(=O)CC2)C1 [Compound 24]
11,≤ 500,COc1cc(Nc2nccc(Nc3cc4cc(Br)ccc4[nH]c3=O)n2)ccc1O[C@H]1C[C@H](N(C)C)C1 [Compound 111]
12,≤ 500,"Clc1ccc2ncc(Nc3ccnc(Nc4ccc(O[C@H]5CC[C@@H](N6CCOCC6)CC5)cc4)n3)cc2c1 [Compound 311, 4-(6-chloro-3-quinolylamino)-2-{p-[(1s,4s)-4-morpholinocyclohexyloxy]phenylamino}pyrimidine]"
